From ChEMBL document CHEMBL3044795, “Synthesis and biological evaluation of novel benzoquinones as potential antimicrobial agents” (2013) come the findings set out here.

Converted amounts (≈) assume the structure as drawn.

What all share (format): functional
In assay [1] the test system is Escherichia coli. Nature of the assay: Antibacterial activity against Escherichia coli ATCC 11775 assessed as diamater of growth inhibition zone after 24 hr by agar cup diffusion method.
Assay [2] relates to Staphylococcus aureus. Nature of the assay: Antibacterial activity against Staphylococcus aureus DSM 1104 assessed as diamater of growth inhibition zone after 24 hr by agar cup diffusion method.
Assay [3] concerns Pseudomonas aeruginosa. Kind of assay: Antibacterial activity against Pseudomonas aeruginosa ATCC 10145 assessed as growth inhibition after 24 hr. As to conditions: ATCC 10145, 24 h.
Assay [4] has as its system Candida albicans. Kind of assay: Antifungal activity against Candida albicans DSM 70014 assessed as growth inhibition after 48 hr by two-fold serial dilution method. The conditions noted are these: DSM 70014, 48 h.
Assay [5] has as its system Pseudomonas aeruginosa. Nature of the assay: Ratio of Ampicillin MIC to compound MIC for Pseudomonas aeruginosa ATCC 10145.
The test system of assay [6] is Staphylococcus aureus. Kind of assay: Antibacterial activity against Staphylococcus aureus DSM 1104 assessed as growth inhibition after 24 hr by two fold serial dilution method. The conditions noted are these: DSM 1104, 24 h.
Assay [7] has as its system Staphylococcus aureus. Kind of assay: Antibacterial activity against Staphylococcus aureus DSM 1104 assessed as growth inhibition after 24 hr. As to conditions: DSM 1104, 24 h.
For assay [8], the system named is Pseudomonas aeruginosa. Nature of the assay: Antibacterial activity against Pseudomonas aeruginosa ATCC 10145 assessed as diamater of growth inhibition zone after 24 hr by agar cup diffusion method.
The subject of assay [9] is Escherichia coli. Nature of the assay: Antibacterial activity against Escherichia coli ATCC 11775 assessed as growth inhibition after 24 hr by two-fold serial dilution method. As to conditions: ATCC 11775, 24 h.
Assay [10] has as its system Escherichia coli. Kind of assay: Antibacterial activity against Escherichia coli ATCC 11775 assessed as growth inhibition after 24 hr. The conditions noted are these: ATCC 11775, 24 h.
Assay [11] deals with Pseudomonas aeruginosa. Kind of assay: Antibacterial activity against Pseudomonas aeruginosa ATCC 10145 assessed as growth inhibition after 24 hr by two-fold serial dilution method. As to conditions: ATCC 10145, 24 h.
The subject of assay [12] is Bacillus subtilis. Kind of assay: Antibacterial activity against Bacillus subtilis ATCC 6633 assessed as diamater of growth inhibition zone after 24 hr by agar cup diffusion method.
For assay [13], the system named is Bacillus subtilis. Nature of the assay: Antibacterial activity against Bacillus subtilis ATCC 6633 assessed as growth inhibition after 24 hr by two fold serial dilution method. The conditions noted are these: ATCC 6633, 24 h.
Assay [14] concerns Candida albicans. Nature of the assay: Antifungal activity against Candida albicans DSM 70014 assessed as growth inhibition after 48 hr. As to conditions: DSM 70014, 48 h.
Assay [15] concerns Candida albicans. Nature of the assay: Antifungal activity against Candida albicans DSM 70014 assessed as diamater of growth inhibition zone after 48 hr by agar cup diffusion method.
For assay [16], the system named is Bacillus subtilis. Nature of the assay: Antibacterial activity against Bacillus subtilis ATCC 6633 assessed as growth inhibition after 24 hr. The conditions noted are these: ATCC 6633, 24 h.
Assay [17] relates to Escherichia coli. Kind of assay: Ratio of compound MIC to Ampicillin MIC for Escherichia coli ATCC 11775.

As to `COc1ccc(/C=N/N=c2\scc(C3=CC(=O)C=CC3=O)n2-c2ccc(C)cc2)cc1`, the “diameter of the inhibition zone (DIZ)” value is on record as 16 mm with Escherichia coli [1]; 16 mm in the assay with Staphylococcus aureus [2]; 15 mm in the assay with Pseudomonas aeruginosa [8]; 14 mm in the assay with Bacillus subtilis [12]; 14 mm in the assay on Candida albicans [15]. Moreover, the MBC (as a rule, the lowest tested concentration that kills the bacteria rather than only halting them) in the assay on Pseudomonas aeruginosa [3] came to 25 µg/mL (≈ 58.2 µM); in the assay with Staphylococcus aureus [7] it was 50 µg/mL (≈ 116 µM); in the assay with Escherichia coli [10], 50 µg/mL (≈ 116 µM); in the assay on Bacillus subtilis [16], 50 µg/mL (≈ 116 µM). Besides, the MIC (in general, the lowest concentration found to suppress growth) turned out to be 50 µg/mL (≈ 116 µM) in the assay with Candida albicans [4]; 50 µg/mL (≈ 116 µM) with Staphylococcus aureus [6]; 25 µg/mL (≈ 58.2 µM) with Escherichia coli [9]; 12.5 µg/mL (≈ 29.1 µM) with Pseudomonas aeruginosa [11]; 50 µg/mL (≈ 116 µM) in the assay on Bacillus subtilis [13]. In addition, the Ratio in the assay on Pseudomonas aeruginosa [5] turned out to be 4; in the assay with Escherichia coli [17], 2. Further, the MFC (as a rule, the smallest concentration meeting the test's criterion for killing the fungus) with Candida albicans [14] came to 50 µg/mL (≈ 116 µM).
